Reference: patent US20090054412A1, “Treatment of Sleep Disorders” (priority 2007, published 2009)
Marks after values point to notes of the source that are not given here.

Experiments:
[1] = Example 1: placebo controlled cross-over study, road noise model, healthy volunteers; assay type: in vivo, human
Protocol: A placebo controlled, randomized, double-blind, cross-over study of the effects of the compound of formula (II) was conducted using a road noise model using 12 healthy volunteers. Specifically, the volunteers were subjected to road traffic noise to imitate the effects of insomnia, and the medication was orally administered 5 minutes before the 11 pm bed time in 1.0 mg, 1.5 mg, 2 mg and 2.5 mg doses in the form of a hard gelatine capsule containing the powdered compound of formula (II). Measurements were then taken at 8, 10 and 12 hours after dosing.

[2] = biological target: T1, rat GABAA receptors α5β2γ2 (Rattus norvegicus, UniProt P18508+P19969); assay: Stimulation of GABA (EC3-5)-elicited currents in Xenopus oocytes, two-electrode voltage clamp, α5β2γ2; assay type: cell-based
T1 construct: expressed in transfected cells; host or cells: Xenopus laevis oocytes, cRNA microinjected
T1 sequence (P19969 32-464 limits assumed): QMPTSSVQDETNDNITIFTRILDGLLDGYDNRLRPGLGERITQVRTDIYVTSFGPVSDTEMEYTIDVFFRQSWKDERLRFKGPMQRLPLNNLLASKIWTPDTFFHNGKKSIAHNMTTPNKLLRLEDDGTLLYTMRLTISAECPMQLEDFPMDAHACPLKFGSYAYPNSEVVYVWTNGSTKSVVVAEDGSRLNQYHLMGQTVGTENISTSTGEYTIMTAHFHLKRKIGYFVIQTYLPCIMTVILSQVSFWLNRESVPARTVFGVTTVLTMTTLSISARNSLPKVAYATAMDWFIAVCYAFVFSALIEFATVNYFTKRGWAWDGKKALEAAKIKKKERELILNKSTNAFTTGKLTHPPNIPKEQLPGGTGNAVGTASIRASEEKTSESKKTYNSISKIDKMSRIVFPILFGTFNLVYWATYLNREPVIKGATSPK
T1 sequence (P63138 25-474 partner limits assumed): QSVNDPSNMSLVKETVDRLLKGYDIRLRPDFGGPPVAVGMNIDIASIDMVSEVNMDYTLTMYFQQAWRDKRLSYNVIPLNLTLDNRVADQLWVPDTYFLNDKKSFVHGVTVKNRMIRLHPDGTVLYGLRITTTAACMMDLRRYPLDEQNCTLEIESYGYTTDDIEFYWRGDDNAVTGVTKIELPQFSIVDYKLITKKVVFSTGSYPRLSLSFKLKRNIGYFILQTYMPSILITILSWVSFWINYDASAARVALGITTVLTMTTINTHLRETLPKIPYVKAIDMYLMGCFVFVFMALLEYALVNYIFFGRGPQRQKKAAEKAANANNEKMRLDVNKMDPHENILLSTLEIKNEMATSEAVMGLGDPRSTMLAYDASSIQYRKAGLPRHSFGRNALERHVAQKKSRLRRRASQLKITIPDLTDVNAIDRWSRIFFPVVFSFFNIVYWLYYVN
T1 sequence (P18508 39-466): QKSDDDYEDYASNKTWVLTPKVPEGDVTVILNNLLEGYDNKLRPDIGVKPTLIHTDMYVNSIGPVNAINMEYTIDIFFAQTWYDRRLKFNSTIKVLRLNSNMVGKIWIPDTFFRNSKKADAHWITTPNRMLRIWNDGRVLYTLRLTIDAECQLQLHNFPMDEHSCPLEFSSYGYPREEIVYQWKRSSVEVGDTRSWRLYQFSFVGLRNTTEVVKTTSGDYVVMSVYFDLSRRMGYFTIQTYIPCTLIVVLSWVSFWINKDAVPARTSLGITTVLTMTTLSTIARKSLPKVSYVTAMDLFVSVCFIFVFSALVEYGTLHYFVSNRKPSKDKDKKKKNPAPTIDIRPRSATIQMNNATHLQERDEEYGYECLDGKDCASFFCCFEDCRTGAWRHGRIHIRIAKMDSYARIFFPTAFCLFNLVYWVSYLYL
Description: 7-Chloro-3-(5-dimethylaminomethyl-[1,2,4]oxadiazol-3-yl)-5methyl-4,5-dihydro-imidazol[1,5,-a][1,4]benzodiazepine-6-one was used to test the effects of the compound of formula (II): […]
Similar procedures were chosen as for the investigation of other GABAA receptor subunit specific substances (e.g., Baur et al., 2005; Mol. Pharmacol. 68, 787-792).
Lobes of the ovary containing the follicles were obtained by surgical procedures from female Xenopus laevis. Follicles were singled out using a platinum loop. Fifty nL of cRNA solution at a ratio of αx:β2:γ2 of 1:1:5 (3.3-10 nM αx (x=1,2,3,5); 3.3-10 nM β2; 16.7-50 nM γ2) (Boileau et al., 2002; Neuropharmacology 43, 695-700) were microinjected into Xenopus follicles. Several hours after microinjection the follicles were freed of follicular layers and adhering connective tissue by a collagenase/hypertonic shock procedure (Sigel, 1987; J. Physiol.(Land) 386, 73-90). Oocytes were kept at constant 18° C. until measurement (1-4 days) in a modified Barth solution (88 mM NaCl, 1 mM KCl, 2.4 mM NaHCO3, 10 mM Hepes-NaOH (pH 7.5), 0.82 mM MgSO4×7H2O, 0.34 mM Ca(NO3)2×4H2O, 0.41 mM CaCl2×2H2O, 100 U Penicillin/mL, 100 μg Streptomycin/mL, sterile filtered).
Currents were measured using a home-built amplifier in combination with a xy-recorder or were digitized using a MacLab/200 (AD Instruments) and stored on a computer. Xenopus oocytes were voltage clamped using the two-electrode voltage clamp technique (electrode resistance about 0.8 MΩ) at −80 mV. The medium contained 90 mM NaCl, 1 mM KCl, 1 mM MgCl2, 1 mM CaCl2, 10 mM Na-Hepes (pH 7.4) and 0.5% DMSO.
GABA was applied for 20-50 seconds without or in combination with other drugs and a washout period of 4 minutes was allowed to ensure full recovery from desensitization, which was experimentally determined. The perfusion solution (6 mL/min) was applied through a glass capillary with an inner diameter of 1.35 mm, the mouth of which was placed about 0.4 mm from the surface of the oocyte. The rate of solution change under our conditions has been estimated 70% within less than 0.5 s (Sigel et al., 1990; Neuron 5, 703-711). The entire perfusion system and the assay chamber were cleaned between drug applications by washing with DMSO.
Data is given as mean±SD, except in the figures where data is shown for clarity as mean±SEM. Current stimulation was calculated as follows: stimulation (%)=((I(GABA+modulator)−I(GABA))/I(GABA))×100%, where I is the current amplitude. Where indicated, the stimulation was standardized to the stimulation by 1 μM diazepam (100%). To obtain FIGS. 1-4, values for current stimulation obtained at a given concentration of modulator at a given subunit combination were averaged. The data points were fitted with the equation stimulation=efficacy/(1+(potency/concentration of modulator)). The values given in the Tables (Summary) are obtained by fitting individual curves and subsequently averaging efficacy and potency.
Concentration response curves were also performed with oocytes expressing α2β2γ2, α3β2γ2, or α5β2γ2, after establishing the optimal concentration range as indicated above. […] Averaged data of the individual curves summarizing the effects of the compound of formula (II) are shown below for unstandardized and standardized stimulation.
Concentration response curves were also performed with oocytes expressing α2β2γ2, α3β2γ2, or α5β2γ2.
Current stimulation by diazepam was determined in each batch of oocytes as follows. GABA (EC3-5) was applied until a stable response was obtained. Subsequently, GABA was applied in combination with 1 μM diazepam.

[3] = 1.5, 2.0 & 2.5 mg oral, vs placebo
[4] = all 4 doses (1.0, 1.5, 2 and 2.5 mg oral)
[5] = objective residual effects, 8, 10 and 12 hours after dosing

CN(C)Cc1nc(-c2ncn3c2CN(C)C(=O)c2c(Cl)cccc2-3)no1 [compound of formula (II), 7-chloro-3-(5-dimethylaminomethyl-[1,2,4]oxadiazol-3-yl)-5-methyl-4,5-dihydro-imidazo[1,5-a][1,4]benzodiazepine-6-one]
Subjective assessment (LARS): Coordination ([1]; 2.5 mg): No impairment | Subjective assessment (LARS): Mood ([1]; 2.5 mg): No impairment | Subjective assessment (LARS): Sedation ([1]; 2.5 mg): No impairment | WASO 2nd half night (hrs 5-8) [1, 3]: Significantly reduced | WASO full night (hrs 0-8) [1, 3]: Significantly reduced | Sleep Efficiency Index ([1]; 2.0 & 2.5 mg oral, vs placebo): Significantly improved | Total Sleep Time ([1]; 2.0 & 2.5 mg oral, vs placebo): Significantly improved | Performance on cognitive or psychomotor tests ([1]; 8 to 12 hours after dose, data corrected for multiple comparisons): no impairment of performance | Leeds Sleep Evaluation Questionnaire: Quality of sleep ([1]; all 4 doses): Significantly improved at all | Slow Wave Sleep (% and duration) [1, 4]: Significantly increased | Stage IV Sleep (% and duration) [1, 4]: Significantly increased | Sternberg Memory Task (STM) ([1]; at 8 or 12 h): No effect | Continuous Tracking Task - reaction time ([1]; at 10 or 12 h): No effect | Continuous Tracking Task - deviation ([1]; at 8 h): No effect | Leeds Sleep Evaluation Questionnaire: Early morning behaviour (clumsiness & tiredness) ([1]; human, in vivo): No effect | Leeds Sleep Evaluation Questionnaire: Ease of awakening ([1]; human, in vivo): No effect | Choice Reaction Time - Motor Component ([1]; objective residual effects): No effect | Critical Flicker Fusion Test ([1]; objective residual effects): No effect | Word Recall - delayed (WRd) ([1]; objective residual effects): No effect | Rapid Visual Information Processing [1, 5]: No effect | Sustained Attention to Response (SART) [1, 5]: No effect | Leeds Sleep Evaluation Questionnaire: Getting to sleep ([1]; road traffic noise model considered nondiscriminant for sleep onset measures): (No effect)* | EC50 ([2]; GABA EC3-5, mean±SD of individually fitted curves, read-out: Potency): 53 ± 6 nM | Standardized Efficacy ([2]; standardized to stimulation by 1 μM diazepam (100%)): 69 ± 23% (n = 5) | Efficacy ([2]; unstandardized current stimulation): 135 ± 16% (n = 5)
